Test results as given in US20240309022A1, “Metal-Organic Frameworks with Pyrazole-Based Building Blocks” (BASF SE, priority 2021, published 2024).

Legend:
[1] = test system: nitrification in soil (microbial biomass); assay: Soil incubation test for inhibition of nitrification (Example 4); assay type: cell-based; details: n=4
Protocol: 100 g soil is filled into 500 ml plastic bottles (e.g. soil sampled from the field) and is moistened to 50% water holding capacity. The soil is incubated at 20° C. for two weeks to activate the microbial biomass. 1 ml test solution, containing the components of the mixture in the appropriate concentration (usually from 0.1 to 3% of nitrogen N), or DMSO and 10 mg nitrogen in the form of ammoniumsulfate-N is added to the soil and everything mixed well. Bottles are capped but loosely to allow air exchange. The bottles are then incubated at 20° C. for 0, 14 and 28 days.
For analysis, 300 ml of a 1% K2SO4-solution is added to the bottle containing the soil and shaken for 2 hours in a horizontal shaker at 150 rpm. Then the whole solution is filtered through a filter (Macherey-Nagel Filter MN 807%). Ammonium and nitrate content is then analyzed in the filtrate in an autoanalyzer at 550 nm (Merck, AA11).
The inhibition (NI@a specified concentration) is calculated as follows:
4 tests regarding the inhibition of nitrification were performed in each case (n=4).
The tested amounts were 0.3 and 1% by weight of component (ii) of the MOF relative to NH4—N.

[2] = test system: N2O emission; assay: N2O inhibition in vegetation hall over 10 days using ammonium sulfate as fertilizer; details: 10 days cumulative
Text: N2O inhibition in vegetation hall over 10 days (cumulative values) using AS (ammonium sulfate) as fertilizer: […]

[3] = test system: nitrification in soil Limburgerhof (microbial community); assay: Soil incubation with inhibitor mixed into ammonium sulfate nitrate melt (Example 5); assay type: cell-based; details: after 14 days, added to ASS melt at 125° C.
Protocol: The MOF of Example 3 was tested as follows in terms of the inhibition of nitrification: The nitrification inhibition capacity was tested after incubation of soil. In the experiment 50 g soil (soil Limburgerhof with pH (CaCl2)) 6, 73% sand, 23% silt, 4% clay, which is classified according to FAO as sandy loam) was filled into 250 ml plastic bottles and was moistened to 50% water holding capacity. The soil was incubated at 20° C. for about one week prior to the experiments to activate the microbial community. Ammonium sulfate nitrate (ASS) was heated to 125° C. in presence of 4% water. After the ASS had melted, Zinc-5-Ethoxy-3-Methyl-Pyrazolate or the underlying pyrazole compound was added and was mixed in for 1 minute. Afterwards, the melted ASS was poured onto a metal plate and cooled down to room temperature. Depending on treatment, 26.3 mg the treated ASS were milled and added to the soil and everything was mixed well. […] The fertilizer amount used for the experiment was calculated to contain 5 mg nitrogen in the form of ammonium sulfate-N(NH4—N)). […] Ammonium and nitrate content is then analyzed in the filtrate using an autoanalyzer. Ammonium was quantified via an indophenol blue dye at 660 nm, and nitrate via an azo dye at 540 nm. The nitrification inhibition is expressed as % of NH4—N recovery from fertilized NH4—N-(100%) after subtraction of unfertilized control soil.

[4] = Evaporation of active ingredient in thermogravimetric analyzer; assay type: physicochemical; details: during 1 hour at 30° C.; continuous flow of N2 gas
Protocol: The evaporation of 5-ethoxy-3-methyl-1H-pyrazole and the corresponding Zn MOF of 5-ethoxy-3-methyl-1H-pyrazole, i.e. Zinc-5-Ethoxy-3-Methyl-Pyrazolate, has been measured in a thermogravimetric analyzer instrument by the following procedure. A few milligrams of the test substance were positioned on the probe of the thermogravimetric analyzer, in a continuous flow of N2 gas. After equilibrating the system to 30° C., the weight of the sample was monitored over a time period of 65 minutes at a temperature of 30° C.

[5] = 0.3 wt.-% of pyrazolate relative to NH4—N, after 14 days
[6] = 0.3 wt.-% of pyrazolate relative to NH4—N, after 28 days
[7] = 1.0 wt.-% of pyrazolate relative to NH4—N, after 14 days
[8] = 1.0 wt.-% of pyrazolate relative to NH4—N, after 28 days

SMILES | Reduction of NO3− production [1, 5] | Residual amounts of NH4 [1, 5] | Reduction of NO3− production [1, 6] | Residual amounts of NH4 [1, 6] | Reduction of NO3− production [1, 7] | Residual amounts of NH4 [1, 7] | Reduction of NO3− production [1, 8] | Residual amounts of NH4 [1, 8] | % Emission (N2O) ([2]; 0.3 wt.-% relative to NH4—N) | % Inhibition (N2O) ([2]; 0.3 wt.-% relative to NH4—N) | Emission cumulative minus background (N2O) ([2]; 0.3 wt.-% relative to NH4—N) | % Emission (N2O) ([2]; 1.0 wt.-% relative to NH4—N) | % Inhibition (N2O) ([2]; 1.0 wt.-% relative to NH4—N) | Emission cumulative minus background (N2O) ([2]; 1.0 wt.-% relative to NH4—N) | Residual amounts of NH4 (% of NH4—N recovery from fertilized NH4—N) ([3]; 0.3 wt.-% relative to NH4—N) | Residual amounts of NH4 (% of NH4—N recovery from fertilized NH4—N) ([3]; 0.8 wt.-% relative to NH4—N) | % loss (evaporation of active ingredient) [4]
COc1cc(C)n[nH]1 [5-Methoxy-3-Methyl-1H-Pyrazole] | 75 | 70 | 40 | 34 | 88 | 90 | 74 | 68 | 10.4% | 89.6% | 393 | 5.0% | 95.0% | 191 |  |  | 
CCOc1cc(C)n[nH]1 [5-ethoxy-3-methyl-1H-pyrazole] |  |  |  |  |  |  |  |  |  |  |  |  |  |  | 45.4% | 57.0% | 5.6%
